Measured values from PubChem BioAssay AID504313 (Emory University Molecular Libraries Screening Center, 2011).
The source made the active and inactive calls. The rule behind the calls is not given here.

Molecular target: X-box-binding protein 1 (Homo sapiens) (UniProt P17861)
Test: XBP1 reporter suppression in cells – counter-screen, dose response (AID 504313);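 note: CHO cells carrying an XBP1 reporter stimulated with tunicamycin; potency is for inhibition of the tunicamycin-induced reporter signal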
Conditions: XBP1 reporter cell assay, percent of control

Structure (SMILES) | IC50
NC(=O)CC(NC(=O)Cc1cccc2ccccc12)c1ccc(NCc2cc(F)ccc2F)c([N+](=O)[O-])c1 (centres undefined) | > 10 µM (inactive)
CC(/C=C1\SC(=O)N(CCCC(=O)O)C1=O)=C\c1ccccc1 | < 0.16 µM
NC(=S)n1[nH]c(-c2ccc([N+](=O)[O-])cc2)c(N=Nc2cccc([N+](=O)[O-])c2)c1=O | inactive
O=C(O)c1ccc(N/N=C/c2ccc3nccnc3c2)cc1 | 1.83 µM
CCCCNS(=O)(=O)c1ccc2nc(-c3cccnc3)cc(C(=O)NC3CCCC3)c2c1 | > 10 µM (inactive)
Nc1cc(Cl)ccc1Oc1ccc(Cl)cc1 | inactive
OC(c1cccc(OCc2ccccc2)c1)c1nnc(-c2ccccc2)o1 (centres undefined) | > 10 µM (inactive)
Cc1cccc(N2CCN(C(=O)c3c(C)nn(Cc4ccccc4Cl)c3C)CC2)c1C | > 10 µM (inactive)
O=c1c(Cl)nc2cc(Cl)ccc2n1CCNc1ncc(C(F)(F)F)cc1Cl | 4.7 µM
CCC(C)NC(=O)c1c(N)n(CC2CCCO2)c2nc3ccccc3nc12 (centres undefined) | > 10 µM (inactive)
O=C(c1nnsc1S(=O)(=O)c1ccc(Cl)cc1)N1CCOCC1 | inactive
OC(CNCCc1ccc(C(F)(F)F)cc1)COc1cccc2ccccc12 (centres undefined) | < 0.16 µM (inactive)
C=CCc1cc(C)ccc1OCC(O)CN1CCN(c2ccccc2)CC1 (centres undefined) | inactive
CCOc1cc(/C=N/NC(=O)Cc2ccc(C(F)(F)F)cc2[N+](=O)[O-])c(Br)cc1OC | inactive
COc1ccccc1-c1cc(C(F)(F)F)nc(S(=O)(=O)CCCC(=O)Nc2cccnc2Cl)n1 | > 10 µM (inactive)
CCOc1ccc(N2C(=O)/C(=C\c3ccc(O)c(OC)c3)S(=O)(=O)C2c2cccc([N+](=O)[O-])c2)cc1 (centres undefined) | > 10 µM (inactive)
Cc1nc(COC(=O)c2cc(O)c3ccccc3c2O)cs1 | > 10 µM (inactive)
O=[N+]([O-])c1ccc(S(=O)(=O)CC(CN2CCCCC2)N2CCCCC2)cc1 (centres undefined) | inactive
CCOC(=O)/C(=C\c1ccc(OC(F)F)cc1)C1=Nn2c(nnc2-c2ccc(Cl)cc2)SC1 | 4.7 µM
C=CCOC(=O)C1=C(C)NC(C)=C(C(=O)OCC=C)C1/C=C/c1ccccc1 | inactive
CCc1ccc(OCc2n[nH]c(=S)n2C(C)CCCC(C)C)cc1 (centres undefined) | inactive
O=C(Nc1ccccc1-c1nc2ccccc2[nH]1)c1sc2ccccc2c1Cl | > 10 µM (inactive)
C=CCn1c(SCC(=O)Nc2ccc(-c3nc4ccc(C)cc4s3)cc2)nnc1-c1ccccc1 | > 10 µM (inactive)

Structure (SMILES) | IC50
CCCCCCCCCCCCCCCC[n+]1cccc2ccccc21 | < 0.16 µM (inactive)
COc1cc(-c2nc3ccc4ccccc4c3c3c2CCC3)cc(OC)c1O | inactive
CC1=C(C)/C(=N\OS(=O)(=O)c2ccccc2)C=CC1=O | 2.89 µM
OC(CNCCc1ccc(C(F)(F)F)cc1)COc1ccc2ccccc2c1 (centres undefined) | inactive
CC(C)(C)C1CCC(C(=O)OCC(=O)c2ccc[nH]2)CC1 (centres undefined) | inactive
CC1CCN(C(=O)/C(=C/c2ccccc2Cl)c2ccccc2)CC1 | inactive
Cc1nn(-c2ccccc2Cl)c(Cl)c1/C=N/Nc1nc2ccccc2s1 | < 0.16 µM
COc1cc(C)nc(N2CCCC(C(=O)Nc3cccc(Cl)c3C)C2)n1 (centres undefined) | > 10 µM (inactive)
CC(C)(C)c1ccc(S(=O)(=O)NCC(=O)Nc2sc3c(c2C(N)=O)CCCC3)cc1 | > 10 µM (inactive)
CC1=C(CO)C(=O)OC([C@@H](C)C2CC[C@H]3C4C[C@H]5O[C@]56[C@@H](O)C=CC(=O)[C@]6(C)C4CC[C@]23C)C1 (some centres undefined) | > 10 µM (inactive)
NC(=O)c1ccc(C(F)(F)F)n(Cc2ccc(Cl)cc2)c1=O | inactive
Clc1ccc2c(N/N=C/c3ccc(Br)cc3)ccnc2c1 | > 10 µM (inactive)
NC(=O)c1ccc(C(F)(F)F)n(Cc2c(Cl)cccc2Cl)c1=O | inactive
O=C(O)c1cccc(COc2ccc(CO)cc2Cl)c1 | < 0.16 µM
O=C(CN1C(=O)c2ccccc2S1(=O)=O)c1ccc2c(c1)OCCCO2 | 0.37 µM
O=C(Nc1ccc([N+](=O)[O-])cc1)Nc1ccc(OC(F)F)c(Cl)c1 | inactive
CC(C)(C)C(=O)NC(=S)NNC(=O)C(c1ccccc1)c1ccccc1 | > 10 µM (inactive)
O=C1C(Cl)=C(Nc2ccccc2)C(=O)c2ccccc21 | inactive
CC(=O)C1=C(c2ccc(Br)cc2)C(=O)c2ccccc2C1=O | 0.99 µM
O=C(NCc1nc(-c2ccc(C(F)(F)F)cc2)no1)Nc1ccc(OC(F)(F)F)cc1 | 4.26 µM
Cc1sc(NC(=O)c2cccc([N+](=O)[O-])c2)c(C(N)=O)c1-c1ccc(C(C)(C)C)cc1 | 4.11 µM
O=C1C(C2=NC(c3ccccn3)C3C(=O)N(c4ccc(OC(F)(F)F)cc4)C(=O)C23)=C(O)c2ccccc21 (centres undefined) | inactive
Cc1ccc(N=C2SC(C(=O)Nc3ccc(OC(F)(F)F)cc3)C(N)=C2C(=O)Nc2c(C)cc(C)cc2C)cc1 (centres undefined) | > 10 µM (inactive)

Structure (SMILES) | IC50
CCn1c(C)nc2cc(-c3nc4n(n3)Cc3ccccc3-4)ccc21 | < 0.16 µM (inactive)
O=C(CCl)Nc1cccc(-c2cnc3ccccc3n2)c1 | > 10 µM (inactive)
CC(C)(C)c1ccc(C(=O)NNC(=O)c2cccc(Br)c2)cc1 | > 10 µM (inactive)
Cc1ccccc1Oc1cc(-n2ncc(Cl)c(Cl)c2=O)ncn1 | 1.75 µM
COc1cccc(NC(=O)CSc2nnc(-c3cc(C)n(-c4ccccc4)c3C)o2)c1 | 0.41 µM
CCOC(=O)c1c(C(C)(C)C)oc2ccc(O)cc12 | > 10 µM (inactive)
O=C(Nc1ccc(C(O)(C(F)(F)F)C(F)(F)F)cc1)c1ccc(Cl)c([N+](=O)[O-])c1 | inactive
COc1cc(N(C(=O)Cc2cccs2)C(C(=O)NC2CCCCC2)c2ccc(C)cc2)ccc1-n1cnnn1 (centres undefined) | > 10 µM (inactive)
CCOC(=O)c1c(C)[nH]c2c1-c1ccccc1C(=O)C2=O | 1.41 µM
Cc1ccc(C)c(NC(=S)NC(NC(=O)/C=C/c2ccccc2)C(Cl)(Cl)Cl)c1 (centres undefined) | > 10 µM (inactive)
O=C(Nc1ccccc1Cl)/C(Cl)=C(\Cl)S(=O)c1ccccc1 (centres undefined) | 2.4 µM
O=[N+]([O-])c1ccc(COc2ccc(-c3[nH]ncc3-c3ccccc3)c(O)c2)cc1 | > 10 µM (inactive)
Cc1cccc(NS(=O)(=O)c2ccc(C3CCCCC3)cc2)c1 | 4.03 µM
C=CCSc1nc2ccccc2n1C(=O)/C=C/c1cc(OC)c(OC)c(OC)c1 | 1.73 µM
COc1cc([C@@H]2c3cc4c(cc3[C@@H](O)[C@@H](CO)[C@@H]2CO)OCO4)cc(OC)c1O[Si](C)(C)C(C)(C)C | inactive
CC(=O)Nc1ccc(NC2=Nc3ccccc3N3C2=Nc2c(c(C)nn2-c2ccccc2)C3c2ccccc2)cc1 (centres undefined) | inactive
O=C(NC(c1ccccc1)c1c(O)ccc2ccccc12)c1ccccc1Cl (centres undefined) | inactive
CCOC(=O)c1sc(N=Nc2c(O)[nH]c(=O)[nH]c2=O)c(C(=O)OCC)c1C | > 10 µM (inactive)
CCc1ccc(OCC(=O)NC(NC(=S)Nc2ccc(C)cc2C)C(Cl)(Cl)Cl)cc1 (centres undefined) | inactive
CC(C)(C)OC(=O)CNC(=O)c1[nH]cnc1C(=O)Nc1ccc(Cl)cc1 | inactive
CCOc1ccc(-c2nc(CSCC(=O)NCc3ccco3)c(C)o2)cc1 | < 0.16 µM
O=C1c2ccc3c4c(ccc(c24)C(=O)N1c1cccc(O)c1)C(=O)N(c1cccc(O)c1)C3=O | inactive
Oc1ccc(/C=N/Nc2nc(-c3ccc(Cl)cc3)cc(C(F)(F)F)n2)cc1 | > 10 µM (inactive)
